Here are results for 54 compounds from the PolyMetriX glass transition set.

As to `*/C=C/c1ccc(OC(=O)c2ccc(C(=O)Oc3cccc4ccc(*)nc34)cc2)cc1` (repeat unit), the glass transition temperature is 112.00 °C.

In turn, `*C(=O)c1ccc(Oc2c(C)cc(-c3cc(C)c(Oc4ccc(C(=O)c5ccc6nc(*)ccc6c5)cc4)c(C)c3C)c(C)c2C)cc1` (repeat unit) had a glass transition temperature of 250.00 °C.

On to `*Oc1c(C)c(C)c(Oc2ccc(NC(=O)c3ccc(C(=O)Nc4ccc(*)cc4)cc3)cc2)c(C)c1C` (repeat unit), for which the glass transition temperature came to 310.00 °C.

Regarding `*Oc1c(C)cc(-c2cc(CBr)c(Oc3ccc(C(=O)c4ccc(*)cc4)cc3)c(CBr)c2)cc1CBr` (repeat unit), the glass transition temperature came out at 163.67 °C.

In turn, `*Oc1ccc(/C=C2\CC/C(=C\c3ccc(OC(=O)c4ccc(/N=C/c5ccc(/C=N/c6ccc(C(*)=O)cc6)cc5)cc4)cc3)C2=O)cc1` (repeat unit) had a glass transition temperature of 205.00 °C.

Turning to `*Oc1ccc(/N=N/c2ccc(Cc3ccc(/N=N/c4ccc(OC(=O)c5ccc(C(*)=O)cc5)cc4)cc3[N+](=O)[O-])c([N+](=O)[O-])c2)cc1` (repeat unit), the glass transition temperature stood at 198.00 °C.

Consider `*Oc1ccc(C(=O)c2ccccc2)c(-c2cc(Oc3ccc(C(c4ccc(*)cc4)(C(F)(F)F)C(F)(F)F)cc3)ccc2C(=O)c2ccccc2)c1` (repeat unit), for which the glass transition temperature worked out at 164.00 °C.

The compound `*Oc1ccc(C(c2ccc(OC(*)=O)cc2)(C(F)(F)Cl)C(F)(F)Cl)cc1` (repeat unit) gave a glass transition temperature of 183.50 °C.

The compound `*Oc1ccc(C(c2ccc(OC(*)=O)cc2)C2C3CCC(C3)C2c2ccccc2)cc1` (repeat unit) had a glass transition temperature of 196.00 °C.

`*Oc1ccc(C(c2ccc(OC(=O)c3ccc(OCCCCCCCCCCOc4ccc(C(*)=O)cc4)cc3)cc2)(C(F)(F)F)C(F)(F)F)cc1` (repeat unit) had a glass transition temperature of 89.00 °C.

With `*Oc1ccc(C(c2ccccc2)(c2ccccc2)c2ccc(OC(=O)c3ccc(C(*)=O)cc3)cc2)cc1` (repeat unit), the glass transition temperature stood at 210.00 °C.

Consider `*Oc1ccc(C(c2ccccc2)c2ccc(OC(*)=O)cc2)cc1` (repeat unit), for which the glass transition temperature was 170.00 °C.

Turning to `*Oc1ccc(C(c2ccccc2)c2ccc(OC(*)=S)cc2)cc1` (repeat unit), the glass transition temperature came out at 179.00 °C.

Regarding `*Oc1ccc(C2(c3ccc(OC(*)=O)c(Cl)c3)CC3CCC2C3)cc1Cl` (repeat unit), the glass transition temperature amounted to 200.00 °C.

`*Oc1ccc(C2(c3ccc(OC(*)=O)cc3)CCCC2)cc1` (repeat unit) yielded a glass transition temperature of 166.00 °C.

The compound `*Oc1ccc(C2(c3ccc(OC(*)=O)cc3)CCCCC2)cc1` (repeat unit) had a glass transition temperature of 175.00 °C.

Compound `*Oc1ccc(C2(c3ccc(OC(*)=O)cc3)c3ccccc3-c3ccccc32)cc1` (repeat unit) displayed a glass transition temperature of 355.00 °C.

Turning to `*Oc1ccc(C2(c3ccc(OC(*)=S)cc3)CCCC2)cc1` (repeat unit), the glass transition temperature is 79.00 °C.

Take `*Oc1ccc(C2(c3ccc(OC(*)=S)cc3)CCCCC2)cc1` (repeat unit): the glass transition temperature came to 155.00 °C.

The compound `*Oc1ccc(C2(c3ccc(OC(=O)c4cccc(C(*)=O)c4)cc3)CCCCC2)cc1` (repeat unit) returned a glass transition temperature of 127.00 °C.

With `*Oc1ccc(C2(c3ccc(Oc4ccc(C(=O)c5ccccc5)c(-c5cc(*)ccc5C(=O)c5ccccc5)c4)cc3)c3ccccc3-c3ccccc32)cc1` (repeat unit), the glass transition temperature was 215.00 °C.

`*Oc1ccc(C2(c3ccc(Oc4ccc5c(=O)n6c7cc(-c8ccc9c(c8)nc8c%10ccc(*)c%11cccc(c(=O)n98)c%11%10)ccc7nc6c6cccc4c56)cc3)c3ccccc3-c3ccccc32)cc1` (repeat unit) displayed a glass transition temperature of 421.00 °C.

Turning to `*Oc1ccc(Oc2ccc(C(=O)Nc3ccc(Oc4ccc(S(=O)(=O)c5ccc(Oc6ccc(NC(=O)c7ccc(*)cc7)cc6)cc5)cc4)cc3)cc2)cc1C` (repeat unit), the glass transition temperature was 217.00 °C.

Regarding `*Oc1ccc(Oc2ccc(C(=O)c3ccc(*)c(S(=O)(=O)O)c3)cc2S(=O)(=O)O)cc1S(=O)(=O)O` (repeat unit), the glass transition temperature worked out at 248.00 °C.

Consider `*Oc1ccc(Oc2ccc(C(=O)c3ccc(*)cc3)cc2)cc1-c1cc(C(F)(F)F)cc(C(F)(F)F)c1` (repeat unit), for which the glass transition temperature came out at 146.00 °C.

Consider `*Oc1ccc(Oc2ccc(C(=O)c3ccc(*)cc3)cc2)cc1-c1ccc(Oc2ccccc2)cc1` (repeat unit), for which the glass transition temperature turned out to be 146.00 °C.

Turning to `*Oc1ccc(Oc2ccc(C(=O)c3ccc(*)cc3)cc2)cc1-c1ccccc1` (repeat unit), the glass transition temperature turned out to be 157.00 °C.

For `*Oc1ccc(Oc2ccc(C(=O)c3ccc(*)cc3)cc2)cc1C` (repeat unit), the glass transition temperature worked out at 151.00 °C.

In turn, `*Oc1ccc(Oc2ccc(C(=O)c3ccc(*)cc3)cc2)cc1C(C)(C)C` (repeat unit) came in with a glass transition temperature of 177.00 °C.

In the case of `*Oc1ccc(Oc2ccc(C(=O)c3ccc(C(=O)c4ccc(*)cc4)cc3)cc2)cc1-c1ccc(S(=O)(=O)O)c(C)c1` (repeat unit), the glass transition temperature amounted to 167.00 °C.

`*Oc1ccc(Oc2ccc(NC(=O)c3ccc(Oc4ccc(Oc5ccc(C(=O)Nc6ccc(*)cc6)cc5)cc4C)cc3)cc2)cc1` (repeat unit) showed a glass transition temperature of 200.00 °C.

Take `*Oc1ccc(Oc2ccc(Oc3ccc(C(=O)c4ccc(*)cc4)cc3)cc2)cc1` (repeat unit): the glass transition temperature was 150.50 °C.

Regarding `*Oc1ccc(S(=O)(=O)c2ccc(Oc3ccc(C(=O)c4cc(C(=O)c5ccc(*)cc5)cc(C(C)(C)C)c4)cc3)cc2)cc1` (repeat unit), the glass transition temperature is 198.00 °C.

For `*c1ccc(OC(=O)c2ccc(C(=O)Oc3ccc(-c4nc5ccccc5nc4*)cc3)cc2)cc1` (repeat unit), the glass transition temperature was determined as 232.00 °C.

For `*c1ccc(OC(=O)c2cccc(C(=O)Oc3ccc(C4(*)C(=O)Nc5ccccc54)cc3)c2)cc1` (repeat unit), the glass transition temperature is 256.00 °C.

As for `*c1ccc(Oc2cc(C(C)(C)C)c(Oc3ccc(-n4c(=O)c5cc6c(=O)n(*)c(=O)c6cc5c4=O)cc3)cc2C(C)(C)C)cc1` (repeat unit), the glass transition temperature was found to be 298.00 °C.

Compound `*c1ccc(Oc2ccc(-c3ccc(Oc4ccc(N5C(=O)c6ccc(Oc7ccc(C8(c9ccc(Oc%10ccc%11c(c%10)C(=O)N(*)C%11=O)cc9)CCC(c9ccccc9)CC8)cc7)cc6C5=O)cc4)cc3C)c(C)c2)cc1` (repeat unit) yielded a glass transition temperature of 226.00 °C.

The compound `*c1ccc(Oc2ccc(-c3ccc(Oc4ccc(N5C(=O)c6ccc(Oc7ccc(C8(c9ccc(Oc%10ccc%11c(c%10)C(=O)N(*)C%11=O)cc9)CCCCCCCCCCC8)cc7)cc6C5=O)cc4)cc3C)c(C)c2)cc1` (repeat unit) registered a glass transition temperature of 257.00 °C.

With `*c1ccc(Oc2ccc(-c3ccc(Oc4ccc(N5C(=O)c6cccc(Oc7ccc(C(c8ccc(Oc9cccc%10c9C(=O)N(*)C%10=O)cc8)(C(F)(F)F)C(F)(F)F)cc7)c6C5=O)cc4)cc3)cc2)cc1` (repeat unit), the glass transition temperature came to 234.00 °C.

In the case of `*c1ccc(Oc2ccc(C3(c4ccc(Oc5ccc(N6C(=O)c7ccc(Oc8ccc(C9(c%10ccc(Oc%11ccc%12c(c%11)C(=O)N(*)C%12=O)cc%10)CCCCCCCCCCC9)cc8)cc7C6=O)cc5)cc4)C4CC5CC(C4)CC3C5)cc2)cc1` (repeat unit), the glass transition temperature amounted to 262.00 °C.

Turning to `*c1ccc(Oc2ccc(N3C(=O)C(Cl)=C(Oc4ccc(C(c5ccc(OC6=C(Cl)C(=O)N(*)C6=O)cc5)(C(F)(F)F)C(F)(F)F)cc4)C3=O)cc2)cc1` (repeat unit), the glass transition temperature is 193.00 °C.

`*c1ccc(Oc2ccc(N3C(=O)c4ccc(Oc5ccc(-c6ccc(Oc7ccc8c(c7)C(=O)N(*)C8=O)cc6)cc5)cc4C3=O)cc2)cc1` (repeat unit) came in with a glass transition temperature of 229.00 °C.

For the compound `*c1ccc(Oc2ccc(Oc3ccc(-c4cnc5cc(-c6ccc7nc(*)cnc7c6)ccc5n4)cc3)cc2)cc1` (repeat unit), the glass transition temperature is 195.00 °C.

Regarding `*c1ccc(Oc2ccc(Oc3ccc(-c4cnc5ccc(-c6ccc7nc(*)cnc7c6)cc5n4)cc3)cc2)cc1` (repeat unit), the glass transition temperature was determined as 235.00 °C.

Regarding `*c1ccc(Oc2ccc(Oc3ccc(-c4cnc5ccc(-c6ccc7ncc(*)nc7c6)cc5n4)cc3)cc2)cc1` (repeat unit), the glass transition temperature turned out to be 235.00 °C.

Regarding `*c1ccc(Oc2ccc(Oc3ccc(N4C(=O)c5ccc(-c6ccc7c(c6)C(=O)N(*)C7=O)cc5C4=O)cc3)c(C)c2)cc1` (repeat unit), the glass transition temperature stood at 265.00 °C.

Take `*c1ccc(Oc2ccc(Oc3ccc(N4C(=O)c5ccc(Oc6ccc(C7(c8ccc(Oc9ccc%10c(c9)C(=O)N(*)C%10=O)cc8)CCCCCCCCCCC7)cc6)cc5C4=O)cc3)c(C(C)(C)C)c2)cc1` (repeat unit): the glass transition temperature is 262.00 °C.

Regarding `*c1ccc(Oc2ccc(Oc3ccc(Oc4ccc(-c5cnc6ccc(-c7ccc8nc(*)cnc8c7)cc6n5)cc4)cc3)cc2)cc1` (repeat unit), the glass transition temperature was 216.00 °C.

`*c1ccc(Oc2ccc(Oc3ccc(Oc4ccc(-c5cnc6ccc(-c7ccc8ncc(*)nc8c7)cc6n5)cc4)cc3)cc2)cc1` (repeat unit) displayed a glass transition temperature of 216.00 °C.

Turning to `*c1ccc(Oc2cccc(Oc3ccc(-n4c(=O)c5cc6c(=O)n(*)c(=O)c6cc5c4=O)cc3)c2C#N)cc1` (repeat unit), the glass transition temperature was found to be 328.00 °C.

As for `*c1ccc(Oc2cccc(Oc3ccc(N4C(=O)c5ccc(Oc6ccc(C(=O)c7ccc(Oc8ccc9c(c8)C(=O)N(*)C9=O)cc7)cc6)cc5C4=O)cc3)c2)cc1` (repeat unit), the glass transition temperature was 194.00 °C.

As to `*c1ccc2c(c1)C(=O)N(c1ccc(Oc3cc(C(C)(C)C)c(Oc4ccc(N5C(=O)c6ccc(C(*)(C(F)(F)F)C(F)(F)F)cc6C5=O)cc4)cc3C(C)(C)C)cc1)C2=O` (repeat unit), the glass transition temperature turned out to be 277.00 °C.

For `*c1cccc(N2C(=O)c3cccc(Oc4ccc(-c5ccc(Oc6cccc7c6C(=O)N(*)C7=O)cc5)cc4)c3C2=O)c1` (repeat unit), the glass transition temperature amounted to 275.00 °C.

`*c1nnc(-c2ccc(Oc3ccc(/C=C/c4ccc(Oc5ccc(*)c6ccccc56)cc4)cc3)c3ccccc23)o1` (repeat unit) displayed a glass transition temperature of 238.00 °C.
